PMC4364940, “Human β-Defensin 4 with Non-Native Disulfide Bridges Exhibit Antimicrobial Activity” (PLoS ONE, 2015)
Like-named read-outs stand apart in the source and are kept apart here. Positions of bridges follow the written chain, without caps; N, C: chain ends. Residues, ends and D or L forms follow the SMILES beside them. *: point of attachment. Acm = CC(=O)NC*; tBu = CC(C)(C)*

Tests used:
[1] = test system: Escherichia coli (MG1655); conditions: pH 7.4
[2] = test system: Staphylococcus aureus (NCTC 8530); conditions: pH 7.4
[3] = test system: P. aeruginosa; assay type: cell-based, Pseudomonas aeruginosa; conditions: peptide treated cells plated at fixed time intervals during 2 hrs of incubation
Protocol: The antibacterial activity of peptides was examined against Gram-negative bacteria Escherichia coli (MG1655), Pseudomonas aeruginosa (NCTC 6750) and Gram-positive bacteria Staphylococcus aureus (NCTC 8530) using colony counting assay. Bacteria were sub-cultured on nutrient broth (Difco, Detroit, MI, US) at 37°C to mid-logarithmic phase from an overnight grown culture. The cells were harvested and washed with 10 mM sodium phosphate buffer (pH 7.4). 100 μl of suspension containing 10^6 cfu/ml was incubated with varying concentration of peptides for 2 hrs at 37°C. The cells were spread on nutrient agar plates and incubated for 14–18 hrs at 37°C. The numbers of colony forming units (cfu) was counted and minimum concentration at which more than 99% of killing observed was taken as lethal concentration (LC). Fungicidal activity against Candida albicans (ATCC 18804) was also determined as described for the bacteria. […] The effect of loss of proton motif force (pmf) in bacteria and C. albicans on the antimicrobial activity of the peptides was determined by adding the metabolic inhibitor like carbonyl cyanide m-chlorophenylhydrazone (CCCP) (50 μM) into the cell suspension 20 mins prior to the peptides treatment. The rate of killing with respect to time was determined by plating the peptide treated cells at fixed time intervals during 2 hrs of incubation. […]

[4] = test system: E. coli; assay type: cell-based, Escherichia coli
[5] = test system: P. aeruginosa; experiment: Salt sensitivity assay (150 mM NaCl); assay type: cell-based, Pseudomonas aeruginosa; conditions: peptides at lethal concentrations
[6] = test system: Candida albicans (ATCC 18804); conditions: ATCC 18804, 2 h
[7] = test system: S. aureus; assay type: cell-based, Staphylococcus aureus
[8] = test system: E. coli; assay type: cell-based, Escherichia coli; remark: listed apart in the source
[9] = test system: Pseudomonas aeruginosa (NCTC 6750); conditions: NCTC 6750, 2 h, pH 7.4

SMILES: CC[C@H](C)[C@@H]1NC(=O)[C@H](CCCNC(=N)N)NC(=O)[C@H](Cc2ccc(O)cc2)NC(=O)[C@H](CCC(=O)O)NC(=O)[C@H](CCC(N)=O)NC(=O)[C@H](CO)NC(=O)[C@H](CCCNC(=N)N)NC(=O)[C@H](CCCCN)NC(=O)[C@H](CCCCN)NC(=O)[C@H](CCCNC(=N)N)NC(=O)[C@@H](NC(=O)[C@H](CCCNC(=N)N)NC(=O)[C@H](C)NC(=O)[C@@H](NC(=O)CNC(=O)[C@H](Cc2ccc(O)cc2)NC(=O)CNC(=O)[C@H](CO)NC(=O)[C@H](CO)NC(=O)[C@@H](NC(=O)[C@H](CCCNC(=N)N)NC(=O)[C@H](CC(=O)O)NC(=O)[C@H](CC(C)C)NC(=O)[C@H](CCC(=O)O)NC(=O)[C@H](Cc2ccccc2)NC(=O)[C@@H](N)CCC(=O)O)[C@@H](C)CC)[C@@H](C)O)CSSC[C@@H](C(=O)N[C@@H](CC(C)C)C(=O)N[C@@H](CCCNC(=N)N)C(=O)N[C@@H](CCCCN)C(=O)O)NC(=O)[C@H](CO)NC(=O)[C@H](C)NC(=O)[C@H](Cc2ccc(O)cc2)NC(=O)[C@H]([C@@H](C)O)NC(=O)[C@H](CC(N)=O)NC(=O)[C@@H]2CCCN2C(=O)[C@H](CO)NC(=O)[C@H](CCCNC(=N)N)NC(=O)CNC1=O [H4-1d[S]] (H-EFELDRISSGYGTARCRKKRSQEYRIGRSPNTYASCLRK-OH; disulfide 16-36)
- lethal concentration (LC) against E. coli [1]: 3 µM
- lethal concentration (LC) against S. aureus [2]: 5 µM

SMILES: CC[C@H](C)[C@@H]1NC(=O)[C@H](CCCNC(=N)N)NC(=O)[C@H](Cc2ccc(O)cc2)NC(=O)[C@H](CCC(=O)O)NC(=O)[C@H](CCC(N)=O)NC(=O)[C@H](CO)NC(=O)[C@H](CCCNC(=N)N)NC(=O)[C@H](CCCCN)NC(=O)[C@H](CCCCN)NC(=O)[C@H](CCCNC(=N)N)NC(=O)[C@@H](NC(=O)[C@H](CCCNC(=N)N)NC(=O)[C@H](C)NC(=O)[C@@H](NC(=O)CNC(=O)[C@H](Cc2ccc(O)cc2)NC(=O)CNC(=O)[C@H](CO)NC(=O)[C@H](CO)NC(=O)[C@@H](NC(=O)[C@H](CCCNC(=N)N)NC(=O)[C@H](CC(=O)O)NC(=O)[C@H](CC(C)C)NC(=O)[C@@H](N)CCC(=O)O)[C@@H](C)CC)[C@@H](C)O)CSSC[C@@H](C(=O)N[C@@H](CC(C)C)C(=O)N[C@@H](CCCNC(=N)N)C(=O)N[C@@H](CCCCN)C(=O)O)NC(=O)[C@H](CO)NC(=O)[C@H](C)NC(=O)[C@H](Cc2ccc(O)cc2)NC(=O)[C@H]([C@@H](C)O)NC(=O)[C@H](CC(N)=O)NC(=O)[C@@H]2CCCN2C(=O)[C@H](CO)NC(=O)[C@H](CCCNC(=N)N)NC(=O)CNC1=O [H4-1d[S]ΔEF] (H-ELDRISSGYGTARCRKKRSQEYRIGRSPNTYASCLRK-OH; disulfide 14-34; N-terminus and C-terminus assumed)
- lethal concentration (LC) against E. coli [1]: 3 µM
- lethal concentration (LC) against S. aureus [2]: 5 µM

SMILES: CC[C@H](C)[C@@H]1NC(=O)[C@H](CCCNC(=N)N)NC(=O)[C@H](Cc2ccc(O)cc2)NC(=O)[C@H](CCC(=O)O)NC(=O)[C@H](CCC(N)=O)NC(=O)[C@H](CO)NC(=O)[C@H](CCCNC(=N)N)NC(=O)[C@@H]2CSSC[C@@H](C(=O)N[C@@H](CC(C)C)C(=O)N[C@@H](CCCNC(=N)N)C(=O)N[C@@H](CCCCN)C(=O)O)NC(=O)[C@@H]3CSSC[C@H](NC(=O)[C@@H](NC(=O)[C@H](CCCNC(=N)N)NC(=O)[C@H](CC(=O)O)NC(=O)[C@H](CC(C)C)NC(=O)[C@@H](N)CCC(=O)O)[C@@H](C)CC)C(=O)NCC(=O)N[C@@H](Cc4ccc(O)cc4)C(=O)NCC(=O)N[C@@H]([C@@H](C)O)C(=O)N[C@@H](C)C(=O)N[C@@H](CCCNC(=N)N)C(=O)N[C@@H](CSSC[C@H](NC(=O)[C@H](CCCNC(=N)N)NC(=O)CNC1=O)C(=O)N1CCC[C@H]1C(=O)N[C@@H](CC(N)=O)C(=O)N[C@@H]([C@@H](C)O)C(=O)N[C@@H](Cc1ccc(O)cc1)C(=O)N[C@@H](C)C(=O)N3)C(=O)N[C@@H](CCCNC(=N)N)C(=O)N[C@@H](CCCCN)C(=O)N[C@@H](CCCCN)C(=O)N2 [HBD4, Human β-defensin 4] (H-ELDRICGYGTARCRKKCRSQEYRIGRCPNTYACCLRK-OH; disulfide 6-33, 13-27, 17-34; N-terminus and C-terminus assumed)
- rate of killing of P. aeruginosa [3]: more rapidly as compared to the analogs
- activity against E. coli in the presence of 150 mM NaCl [4]: significant loss in activity
- salt sensitivity against E. coli in the absence of pmf [4]: attenuation of activity by NaCl is not observed
- activity against P. aeruginosa in the presence of 150 mM NaCl [5]: significant loss in activity
- lethal concentration (LC) against E. coli ([1]; MG1655, 2 h): 5 (0.53) μM
- minimum fungicidal concentration (MFC) against C. albicans [6]: 7.5 (0.91) μM
- activity against S. aureus in the presence of 150 mM NaCl [7]: significant loss in activity
- time of incubation for killing of E. coli [8]: ≤ 30 min
- lethal concentration (LC) against S. aureus ([2]; NCTC 8530, 2 h): 15 (0.47) μM
- lethal concentration (LC) against P. aeruginosa [9]: 12 (1.35) μM

SMILES: CC[C@H](C)[C@@H]1NC(=O)[C@H](CCCNC(=N)N)NC(=O)[C@H](Cc2ccc(O)cc2)NC(=O)[C@H](CCC(=O)O)NC(=O)[C@H](CCC(N)=O)NC(=O)[C@H](CO)NC(=O)[C@H](CCCNC(=N)N)NC(=O)[C@H](CCCCN)NC(=O)[C@H](CCCCN)NC(=O)[C@H](CCCNC(=N)N)NC(=O)[C@@H](NC(=O)[C@H](CCCNC(=N)N)NC(=O)[C@H](C)NC(=O)[C@@H](NC(=O)CNC(=O)[C@H](Cc2ccc(O)cc2)NC(=O)CNC(=O)[C@H](CSC(C)(C)C)NC(=O)[C@H](CSCNC(C)=O)NC(=O)[C@@H](NC(=O)[C@H](CCCNC(=N)N)NC(=O)[C@H](CC(=O)O)NC(=O)[C@H](CC(C)C)NC(=O)[C@@H](N)CCC(=O)O)[C@@H](C)CC)[C@@H](C)O)CSSC[C@@H](C(=O)N[C@@H](CC(C)C)C(=O)N[C@@H](CCCNC(=N)N)C(=O)N[C@@H](CCCCN)C(=O)O)NC(=O)[C@H](CSCNC(C)=O)NC(=O)[C@H](C)NC(=O)[C@H](Cc2ccc(O)cc2)NC(=O)[C@H]([C@@H](C)O)NC(=O)[C@H](CC(N)=O)NC(=O)[C@@H]2CCCN2C(=O)[C@H](CSC(C)(C)C)NC(=O)[C@H](CCCNC(=N)N)NC(=O)CNC1=O [Peptide H4-1dΔEF] (H-ELDRIC(Acm)C(tBu)GYGTARCRKKRSQEYRIGRC(tBu)PNTYAC(Acm)CLRK-OH; disulfide 14-34; N-terminus and C-terminus assumed)
- lethal concentration (LC) against E. coli [1]: 2.5 µM
- lethal concentration (LC) against S. aureus [2]: 3.5 µM
